Values of other authors as cited in US20240316072A1, “THERAPEUTIC COMPOSITIONS, […] METHODS OF PREPARATION AND USE THEREOF” (Unique Flower LLC, priority 2023, published 2024).

Settings: administration of β-Myrcene in the amount of 0.5 mg/g or more; generally understood

SMILES: C=CC(=C)CCC=C(C)C [β-Myrcene]
- effect in a subject: heavy, narcotic, “couch lock” effect
